# The supplement of paper PMC10307832
# Tests used:
# Experiment in all cases: relative viability (nuclei count vs DMSO), 5 days (fraction); higher = more cells survive
# [1] = compound: C1=CC=C(C(=C1)C2=CC=C(C=C2)C3=CSC4=C3C(=C(C(=O)N4)C#N)O)O + CC1(C)CCC(c2ccc(Cl)cc2)=C(CN2CCN(c3ccc(C(=O)NS(=O)(=O)c4ccc(N[C@H](CCN5CCOCC5)CSc5ccccc5)c(S(=O)(=O)C(F)(F)F)c4)cc3)CC2)C1 [Navitoclax] (partner 0.5 µM)
# Outline: (§1)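 Lung cancer cell lines were seeded in 1536-well plates and dosed by pin tool the next day, with either a single drug or a fixed anchor-drug dose combined with five library-drug doses (not always all listed) spaced in √10 steps. Five days later, one step fixed the cells and stained their nuclei (final 0.05% Triton X-100, 1% formaldehyde, 1 ug/ml Hoechst), and nuclei were counted on 4× images. Relative viability is the nuclei count in treated wells divided by the count in vehicle wells, and each value is the median of duplicate plates.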
# [2] = compound: C1=CC=C(C(=C1)C2=CC=C(C=C2)C3=CSC4=C3C(=C(C(=O)N4)C#N)O)O + NC(=O)Nc1cc(-c2cccc(F)c2)sc1C(=O)N[C@H]1CCCNC1 [AZD7762] (partner 0.2 µM)
# Outline: as §1
# TGX 221 + Palbociclib = compound: CC1=CN2C(=O)C=C(N=C2C(=C1)C(C)NC3=CC=CC=C3)N4CCOCC4 [TGX 221] + CC(=O)c1c(C)c2cnc(Nc3ccc(N4CCNCC4)cn3)nc2n(C2CCCC2)c1=O [Palbociclib] (partner 0.5 µM)
# Outline: as §1
# [3] = compound: O=C(CCCCCCNC(=O)c1cnc(N(c2ccccc2)c2ccccc2)nc1)NO [Ricolinostat] + CC(=O)c1c(C)c2cnc(Nc3ccc(N4CCNCC4)cn3)nc2n(C2CCCC2)c1=O [Palbociclib] (partner 0.5 µM)
# Outline: as §1
Cell Line,relative viability ([1]; first compound 0.08 µM),relative viability ([1]; first compound 0.253 µM),relative viability ([1]; first compound 0.8 µM),relative viability ([1]; first compound 2.53 µM),relative viability ([1]; first compound 8 µM),relative viability ([2]; first compound 0.08 µM),relative viability ([2]; first compound 0.253 µM),relative viability ([2]; first compound 0.8 µM),relative viability ([2]; first compound 2.53 µM),relative viability ([2]; first compound 8 µM),relative viability (TGX 221 + Palbociclib; first compound 0.08 µM),relative viability (TGX 221 + Palbociclib; first compound 0.253 µM),relative viability (TGX 221 + Palbociclib; first compound 0.8 µM),relative viability (TGX 221 + Palbociclib; first compound 2.53 µM),relative viability (TGX 221 + Palbociclib; first compound 8 µM),relative viability ([3]; first compound 0.08 µM),relative viability ([3]; first compound 0.253 µM),relative viability ([3]; first compound 0.8 µM),relative viability ([3]; first compound 2.53 µM)
NCI-H1651,1.07,0.941,1.05,1.1,0.642,0.496,0.454,0.428,0.479,0.334,0.525,0.465,0.505,0.489,0.44,0.499,0.512,0.512,0.542
LCLC-97TM1,0.379,0.719,0.514,0.393,0.453,0.225,0.259,0.258,0.278,0.148,0.184,0.263,0.238,0.206,0.232,0.198,0.202,0.232,0.212
LC-2-ad,0.464,0.382,0.687,0.421,0.361,0.873,0.798,0.871,0.872,0.824,0.478,0.519,0.483,0.503,0.447,0.52,0.418,0.465,0.488
NCI-H2347,0.642,0.781,0.776,0.79,0.647,0.692,0.79,0.758,0.694,0.739,0.423,0.427,0.465,0.391,0.415,0.487,0.371,0.294,0.408
NCI-H460,,0.414,1.43,1.31,0.271,0.579,0.68,0.604,0.611,0.585,0.101,0.179,0.159,0.228,0.168,0.184,0.191,0.0967,0.0766
HOP-62,1.22,1.1,1.04,1.18,0.922,0.533,0.548,0.376,0.704,0.474,0.429,0.449,0.484,0.509,0.43,0.457,0.406,0.355,0.416
NCI-H1975,0.958,1.25,1.15,1.22,0.731,0.665,0.746,0.606,0.736,0.633,0.532,0.558,0.629,0.452,0.526,0.709,0.607,0.607,0.471
NCI-H838,1.16,1.07,1.22,1.12,0.979,0.914,0.923,1.02,0.875,0.839,0.213,0.187,0.19,0.188,0.179,0.202,0.262,0.182,0.235
NCI-H2085,1.12,1.31,1.06,1.25,1.01,0.891,1.06,0.86,1.02,0.997,0.506,0.481,0.43,0.35,0.291,,0.461,0.426,0.478
NCI-H3122,1.01,1.11,1,1.01,1.07,0.985,0.987,0.995,1.03,0.917,0.168,0.154,0.208,0.169,0.184,0.149,0.208,0.186,0.235
HCC-15,0.663,0.809,0.763,0.858,0.644,1.4,1.38,1.46,1.32,0.93,0.497,0.663,0.718,0.635,0.724,0.779,0.739,0.685,0.606
LU99A,0.64,0.878,0.804,0.791,0.769,0.331,0.293,0.335,0.391,0.275,0.383,0.344,0.373,0.405,0.366,0.43,0.399,0.396,0.355
NCI-H2405,0.924,1.04,0.887,0.776,0.767,0.661,,0.752,0.635,0.686,0.482,0.484,0.504,0.456,0.482,0.517,0.554,0.542,0.571
NCI-H1915,0.811,0.769,0.83,0.826,0.771,0.657,0.754,0.696,0.697,0.649,0.491,0.497,0.536,0.498,0.473,0.488,0.521,0.474,0.419
NCI-H322M,1.35,1.24,1.03,1.32,1.09,0.599,0.6,0.522,0.639,0.64,0.492,0.484,0.478,0.459,0.388,0.495,0.493,0.478,0.52
LK-2,,,0.895,0.87,0.683,0.309,0.522,0.277,0.517,0.274,0.647,0.612,0.621,0.673,0.833,0.774,0.548,0.599,0.605
LXF-289,0.951,0.968,0.996,0.994,0.967,1.06,1.09,1.15,1.2,0.925,0.595,0.628,0.612,0.641,0.568,0.618,0.552,0.599,0.609
